Target: T1, OA1 (Homo sapiens, UniProt P51810)
T1 construct: gene GPR143
Test: radioligand saturation binding ([3H]-L-DOPA) on OA1-transfected CHO cells, with Scatchard analysis; supported by calcium response and beta-arrestin recruitment
Assay type: cell-based

T1 sequence (P51810 whole entry): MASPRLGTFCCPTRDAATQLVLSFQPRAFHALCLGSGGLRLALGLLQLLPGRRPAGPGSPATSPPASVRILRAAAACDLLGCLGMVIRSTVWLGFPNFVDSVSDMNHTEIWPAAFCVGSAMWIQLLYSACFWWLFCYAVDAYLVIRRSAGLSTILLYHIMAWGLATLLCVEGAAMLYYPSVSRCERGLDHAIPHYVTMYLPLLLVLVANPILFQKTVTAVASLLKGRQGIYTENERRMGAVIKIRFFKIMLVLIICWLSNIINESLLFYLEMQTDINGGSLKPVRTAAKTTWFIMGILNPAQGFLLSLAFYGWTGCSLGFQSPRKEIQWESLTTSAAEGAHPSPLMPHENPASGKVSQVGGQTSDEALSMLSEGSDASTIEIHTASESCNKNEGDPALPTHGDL

A Kd of 9.35 µM was found for N[C@@H](Cc1ccc(O)c(O)c1)C(=O)O [L-DOPA] in this work.

— PMC2553842, “L-DOPA Is an Endogenous Ligand for OA1” (PLoS Biology, 2008)
